Reference: paper PMC6704710, “Preclinical evaluation of 3D185, a novel potent inhibitor of FGFR1/2/3 and CSF-1R, in FGFR-dependent and macrophage-dominant cancer models” (Journal of Experimental & Clinical Cancer Research : CR, 2019)

Assays:
Assay in all cases: Eurofins kinase panel
Assay type in all cases: biochemical
Details in all cases: read-out: Inhibition rate (%)
A-Raf(h) = target: T1, A-Raf(h) (Homo sapiens, UniProt P10398)
T1 construct: purchased Eurofins (KinaseProfiler)
T1 sequence (P10398 1-606): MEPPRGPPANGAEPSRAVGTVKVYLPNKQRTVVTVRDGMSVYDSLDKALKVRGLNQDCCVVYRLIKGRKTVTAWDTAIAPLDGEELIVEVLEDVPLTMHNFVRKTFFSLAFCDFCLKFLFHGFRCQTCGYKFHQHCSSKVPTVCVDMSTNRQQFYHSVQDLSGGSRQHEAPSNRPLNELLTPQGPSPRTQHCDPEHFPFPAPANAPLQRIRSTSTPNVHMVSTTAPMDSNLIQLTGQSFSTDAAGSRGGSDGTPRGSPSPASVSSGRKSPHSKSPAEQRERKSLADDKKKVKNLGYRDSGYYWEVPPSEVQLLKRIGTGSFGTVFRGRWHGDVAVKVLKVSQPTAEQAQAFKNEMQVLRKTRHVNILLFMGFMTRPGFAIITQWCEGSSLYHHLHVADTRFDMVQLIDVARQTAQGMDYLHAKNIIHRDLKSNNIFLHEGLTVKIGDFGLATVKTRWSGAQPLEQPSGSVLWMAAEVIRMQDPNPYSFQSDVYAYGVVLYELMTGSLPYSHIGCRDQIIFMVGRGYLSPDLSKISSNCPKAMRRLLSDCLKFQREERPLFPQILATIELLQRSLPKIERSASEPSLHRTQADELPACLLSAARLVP

cKit(V560G)(h) = target: T2, cKit(V560G)(h) (Homo sapiens, UniProt P10721, V560G)
T2 construct: purchased Eurofins (KinaseProfiler)
T2 sequence (P10721 26-976 V560G): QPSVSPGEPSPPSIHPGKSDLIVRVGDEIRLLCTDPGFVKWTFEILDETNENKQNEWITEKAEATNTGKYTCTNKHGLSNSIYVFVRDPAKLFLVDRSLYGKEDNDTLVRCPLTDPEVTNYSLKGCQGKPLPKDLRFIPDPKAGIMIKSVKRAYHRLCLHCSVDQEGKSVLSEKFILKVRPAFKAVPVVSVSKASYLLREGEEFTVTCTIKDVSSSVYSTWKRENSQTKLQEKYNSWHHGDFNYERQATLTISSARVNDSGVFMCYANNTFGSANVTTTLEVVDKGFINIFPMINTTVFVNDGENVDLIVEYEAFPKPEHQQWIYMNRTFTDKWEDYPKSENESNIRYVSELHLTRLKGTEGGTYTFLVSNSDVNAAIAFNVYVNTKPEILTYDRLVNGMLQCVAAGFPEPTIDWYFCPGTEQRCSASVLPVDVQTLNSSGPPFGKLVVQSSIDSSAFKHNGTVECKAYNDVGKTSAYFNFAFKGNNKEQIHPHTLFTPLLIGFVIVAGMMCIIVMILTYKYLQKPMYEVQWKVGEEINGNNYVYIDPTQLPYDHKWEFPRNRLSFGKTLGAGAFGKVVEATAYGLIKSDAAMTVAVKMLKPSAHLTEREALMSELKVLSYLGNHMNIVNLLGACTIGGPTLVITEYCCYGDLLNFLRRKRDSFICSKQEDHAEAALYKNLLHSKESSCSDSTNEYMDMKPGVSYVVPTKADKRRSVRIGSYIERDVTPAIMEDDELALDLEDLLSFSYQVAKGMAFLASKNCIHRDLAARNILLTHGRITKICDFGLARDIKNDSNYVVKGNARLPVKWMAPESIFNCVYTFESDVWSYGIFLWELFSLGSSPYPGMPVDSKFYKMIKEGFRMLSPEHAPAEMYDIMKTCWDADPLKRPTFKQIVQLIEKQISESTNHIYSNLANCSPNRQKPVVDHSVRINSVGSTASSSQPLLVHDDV

TRB2(h) = target: T3, TRB2(h) (Homo sapiens, UniProt Q92519)
T3 construct: purchased Eurofins (KinaseProfiler)
T3 sequence (Q92519 1-343): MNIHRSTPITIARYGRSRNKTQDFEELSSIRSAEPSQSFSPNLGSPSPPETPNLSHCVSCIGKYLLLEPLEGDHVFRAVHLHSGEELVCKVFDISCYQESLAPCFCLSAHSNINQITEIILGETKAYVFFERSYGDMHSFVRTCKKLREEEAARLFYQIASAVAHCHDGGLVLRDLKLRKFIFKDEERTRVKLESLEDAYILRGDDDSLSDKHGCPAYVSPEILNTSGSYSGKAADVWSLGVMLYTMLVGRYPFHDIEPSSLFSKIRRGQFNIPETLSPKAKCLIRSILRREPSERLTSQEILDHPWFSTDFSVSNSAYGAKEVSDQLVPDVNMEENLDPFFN

MSK2(h) = target: T4, MSK2(h) (Homo sapiens, UniProt O75676)
T4 construct: purchased Eurofins (KinaseProfiler)
T4 sequence (O75676 whole entry): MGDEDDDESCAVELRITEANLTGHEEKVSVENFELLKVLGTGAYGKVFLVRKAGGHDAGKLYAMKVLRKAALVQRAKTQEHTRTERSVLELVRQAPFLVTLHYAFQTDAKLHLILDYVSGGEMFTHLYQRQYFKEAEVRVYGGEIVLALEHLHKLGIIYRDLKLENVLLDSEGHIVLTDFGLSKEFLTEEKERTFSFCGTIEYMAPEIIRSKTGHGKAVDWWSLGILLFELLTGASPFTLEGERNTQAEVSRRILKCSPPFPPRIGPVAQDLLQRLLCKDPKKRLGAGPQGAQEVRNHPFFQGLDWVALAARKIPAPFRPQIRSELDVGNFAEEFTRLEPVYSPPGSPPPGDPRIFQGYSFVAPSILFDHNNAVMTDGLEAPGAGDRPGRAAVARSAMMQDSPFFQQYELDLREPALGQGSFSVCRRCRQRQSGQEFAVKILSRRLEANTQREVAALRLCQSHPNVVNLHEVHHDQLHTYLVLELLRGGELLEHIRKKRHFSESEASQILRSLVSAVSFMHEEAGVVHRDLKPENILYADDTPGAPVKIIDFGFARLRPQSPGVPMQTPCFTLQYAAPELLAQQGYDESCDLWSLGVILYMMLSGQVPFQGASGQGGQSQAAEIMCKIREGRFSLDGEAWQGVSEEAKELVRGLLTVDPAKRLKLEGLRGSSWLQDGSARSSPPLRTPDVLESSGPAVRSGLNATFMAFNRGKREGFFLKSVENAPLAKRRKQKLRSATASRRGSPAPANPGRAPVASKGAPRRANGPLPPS

IKKβ(h) = target: T5, IKKβ(h) (Homo sapiens, UniProt O14920)
T5 construct: purchased Eurofins (KinaseProfiler)
T5 sequence (O14920 1-756): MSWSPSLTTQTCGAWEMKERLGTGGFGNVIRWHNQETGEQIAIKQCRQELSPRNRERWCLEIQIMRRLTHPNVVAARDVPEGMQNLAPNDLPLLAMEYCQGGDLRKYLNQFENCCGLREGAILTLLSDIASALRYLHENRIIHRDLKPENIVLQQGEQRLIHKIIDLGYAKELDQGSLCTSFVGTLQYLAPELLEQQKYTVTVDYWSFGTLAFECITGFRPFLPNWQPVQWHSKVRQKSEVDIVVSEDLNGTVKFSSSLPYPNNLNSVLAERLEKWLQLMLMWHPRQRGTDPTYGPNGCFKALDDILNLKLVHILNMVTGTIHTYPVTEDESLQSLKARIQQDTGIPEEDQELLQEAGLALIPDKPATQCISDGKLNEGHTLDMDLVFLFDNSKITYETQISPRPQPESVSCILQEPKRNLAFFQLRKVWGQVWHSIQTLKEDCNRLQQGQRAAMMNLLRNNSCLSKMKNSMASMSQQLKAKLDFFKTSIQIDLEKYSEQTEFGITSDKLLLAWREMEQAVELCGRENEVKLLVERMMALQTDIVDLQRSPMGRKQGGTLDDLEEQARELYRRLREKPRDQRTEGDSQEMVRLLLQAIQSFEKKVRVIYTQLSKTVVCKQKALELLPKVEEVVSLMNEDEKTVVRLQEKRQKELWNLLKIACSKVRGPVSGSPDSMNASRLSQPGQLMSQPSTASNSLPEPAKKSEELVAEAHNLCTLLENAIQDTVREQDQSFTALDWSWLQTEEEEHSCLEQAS

Pim-2(h) = target: T6, Pim-2(h) (Homo sapiens, UniProt Q9P1W9)
T6 construct: purchased Eurofins (KinaseProfiler)
T6 sequence (Q9P1W9 whole entry): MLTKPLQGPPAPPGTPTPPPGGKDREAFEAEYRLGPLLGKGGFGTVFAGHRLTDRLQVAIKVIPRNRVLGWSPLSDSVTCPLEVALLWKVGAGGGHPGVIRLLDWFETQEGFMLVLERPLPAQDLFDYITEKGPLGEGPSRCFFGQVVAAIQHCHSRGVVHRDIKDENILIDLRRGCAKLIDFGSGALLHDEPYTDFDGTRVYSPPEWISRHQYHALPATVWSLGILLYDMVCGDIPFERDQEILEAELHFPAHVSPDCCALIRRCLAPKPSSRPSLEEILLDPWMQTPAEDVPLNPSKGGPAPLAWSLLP

CLIK1(h) = target: T7, CLIK1(h) (Homo sapiens, UniProt Q8TDR2)
T7 construct: purchased Eurofins (KinaseProfiler)
T7 sequence (Q8TDR2 whole entry): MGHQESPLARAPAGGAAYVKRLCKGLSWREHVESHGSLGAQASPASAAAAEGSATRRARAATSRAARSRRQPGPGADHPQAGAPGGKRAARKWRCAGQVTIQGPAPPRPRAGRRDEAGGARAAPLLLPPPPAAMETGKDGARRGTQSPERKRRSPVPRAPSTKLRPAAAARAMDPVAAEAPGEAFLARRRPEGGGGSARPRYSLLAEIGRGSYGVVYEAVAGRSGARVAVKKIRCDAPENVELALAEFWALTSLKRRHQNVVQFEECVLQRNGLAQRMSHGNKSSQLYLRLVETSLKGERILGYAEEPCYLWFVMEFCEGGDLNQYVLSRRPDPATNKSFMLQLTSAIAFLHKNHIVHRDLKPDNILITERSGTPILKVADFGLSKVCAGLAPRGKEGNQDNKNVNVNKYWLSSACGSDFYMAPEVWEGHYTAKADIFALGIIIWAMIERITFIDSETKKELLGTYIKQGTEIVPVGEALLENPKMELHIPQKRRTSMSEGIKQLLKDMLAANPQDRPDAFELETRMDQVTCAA

GRK5(h) = target: T8, GRK5(h) (Homo sapiens, UniProt P34947)
T8 construct: purchased Eurofins (KinaseProfiler)
T8 sequence (P34947 whole entry): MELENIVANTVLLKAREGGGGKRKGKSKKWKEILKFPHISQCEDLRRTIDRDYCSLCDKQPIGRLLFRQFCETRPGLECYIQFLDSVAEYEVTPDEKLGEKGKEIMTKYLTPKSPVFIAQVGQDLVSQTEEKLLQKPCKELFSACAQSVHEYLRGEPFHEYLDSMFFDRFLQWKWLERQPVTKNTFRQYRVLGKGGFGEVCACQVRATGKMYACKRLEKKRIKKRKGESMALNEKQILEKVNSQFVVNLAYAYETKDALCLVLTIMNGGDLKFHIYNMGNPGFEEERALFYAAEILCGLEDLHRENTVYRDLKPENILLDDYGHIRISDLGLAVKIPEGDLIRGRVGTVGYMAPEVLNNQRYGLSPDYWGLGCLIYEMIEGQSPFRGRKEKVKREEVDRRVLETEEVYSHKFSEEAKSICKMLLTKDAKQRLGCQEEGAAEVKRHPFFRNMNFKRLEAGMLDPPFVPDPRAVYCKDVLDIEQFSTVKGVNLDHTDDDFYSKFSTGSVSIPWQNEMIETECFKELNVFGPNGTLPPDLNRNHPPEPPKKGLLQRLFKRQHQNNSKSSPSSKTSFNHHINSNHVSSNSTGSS

Compound `COc1cc(OC)c(Cl)c(-c2ccc3c(NC(=O)c4ccc(N5CCNC(C)(C)C5)cc4)n[nH]c3n2)c1Cl` [3D185] has an inhibition at 0.01 µM (A-Raf(h); 10 nM) of -7%, an inhibition at 0.1 µM (A-Raf(h); 100 nM) of -7% and an inhibition at 1 µM (A-Raf(h); 1000 nM) of -4%. It also gave an inhibition at 0.01 µM (cKit(V560G)(h); 10 nM) of 10%, an inhibition at 0.1 µM (cKit(V560G)(h); 100 nM) of 38% and an inhibition at 1 µM (cKit(V560G)(h); 1000 nM) of 71%. It also gave an inhibition at 0.01 µM (TRB2(h); 10 nM) of -3%, an inhibition at 0.1 µM (TRB2(h); 100 nM) of -7% and an inhibition at 1 µM (TRB2(h); 1000 nM) of -4%. For the same compound, the inhibition at 0.01 µM (MSK2(h); 10 nM) was 10%, the inhibition at 0.1 µM (MSK2(h); 100 nM) was 25% and the inhibition at 1 µM (MSK2(h); 1000 nM) was 49%. For the same compound, the inhibition at 0.01 µM (IKKβ(h); 10 nM) was 0%, the inhibition at 0.1 µM (IKKβ(h); 100 nM) was -5% and the inhibition at 1 µM (IKKβ(h); 1000 nM) was 15%. It also gave an inhibition at 0.01 µM (Pim-2(h); 10 nM) of 11%, an inhibition at 0.1 µM (Pim-2(h); 100 nM) of 3% and an inhibition at 1 µM (Pim-2(h); 1000 nM) of 6%. The inhibition at 0.01 µM (CLIK1(h); 10 nM) was 0%, the inhibition at 0.1 µM (CLIK1(h); 100 nM) was -1% and the inhibition at 1 µM (CLIK1(h); 1000 nM) was 12%. It also gave an inhibition at 0.01 µM (GRK5(h); 10 nM) of -1%, an inhibition at 0.1 µM (GRK5(h); 100 nM) of -9% and an inhibition at 1 µM (GRK5(h); 1000 nM) of 3%.
